From patent US20240191211A1, “BIOLUMINESCENCE-TRIGGERED PHOTOCATALYTIC LABELING” (Promega Corporation, priority 2022, published 2024)
“And” between values parts separate entries of the source, which are not always exact repeats. Identical values can stand only once.

Key:
[1] = test system: K562 cell lysate depleted of biotinylated proteins; assay: Bioluminescence-triggered photocatalytic protein labeling with diazirine-biotin in K562 lysate; assay type: biochemical
Protocol: The two fusions orientations were further tethered to chloroalkane-catalyst conjugates and compared for their capacity to drive bioluminescence-triggered photocatalytic protein labeling (FIG. 16B). […] Bioluminescence was induced upon treatment with 10× fluorofurimazine at a final concentration of 100 µM while control wells remained untreated. Following a 15 minutes incubation, samples were collected, resolved on SDS-PAGE, transferred to a nitrocellulose membrane, and analyzed as described in Example 1. […]
Reactions comprising 100 μM diazirine-biotin, 0.1 mg/mL K562 cell lysate depleted of biotinylated proteins, and 60 nM conjugate were assembled in TBS pH 7.5 within wells of a white 96-well plate. […] Following a 15 minutes incubation, samples were collected, resolved on SDS-PAGE, transferred to a nitrocellulose membrane, and analyzed as described in Example 1. […]
This example summarizes the optimization of the bioluminescent photocatalytic system that provided an overall 900-fold increase in bioluminescence-triggered photocatalytic protein labeling (FIG. 18). […] Following a 20-minutes incubation, samples were collected, resolved on SDS-PAGE, transferred to a nitrocellulose membrane, and analyzed as described in Example 1 (FIG. 18A). […]

FKBP-HiBiT = assay: Photocatalytic labeling upon complementation of FKBP-HiBiT with LgBiT-HaloTag:Ir-9049; assay type: biochemical; conditions: HEK293 cell lysate; LED, furimazine or fluorofurimazine
Protocol: HEK293 cell lysate with estimated expression of 2000 nM FKBP-HiBiT was serially diluted into control HEK293 cell lysate to generate 4× lysate solutions with expression levels of 960 nM, 480 nM, 240 nM, and […] while maintaining constant concentration of total proteins. […] Following treatment with 10× diazirine-biotin at a final concentration of […], the UV-transparent plates were subjected to 455 nm radiation at 0-3.2 W for 15 min (Efficiency Aggregators biophotoreactor), and the white plate were further treated for 30 minutes with either furimazine or fluorofurimazine at a final concentration of 100 µM while control wells remained untreated. Samples were then collected, resolved on SDS-PAGE, transferred to a nitrocellulose membrane, and analyzed as described in Example 1. Light-dependent labeling of both LgBiT-HaloTag and FKBP-HiBiT were detected upon radiation or treatment with either furimazine or fluorofurimazine.

[2] = Absorbance profile of photoreactive-biotins; assay type: physicochemical
Protocol: Absorbance profiles for 4 mM phenyl-diazirine-biotin and 20-fold lower concentration of phenyl-azide-biotin (i.e., 200 µM) in 8% or 1% DMSO, respectively, were monitored on a SPARK multimode plate reader (FIG. 20B).
Experiments were conducted during development of embodiments herein to explore structural modifications to the phenyl-azide moiety that could decrease the lifetime of its photogenerated intermediates thereby reducing light-dependent background and increasing labeling specificity. Modifications causing red shift absorbance and subsequently lower triplet state energy thereby enabling more efficient bioluminescence-triggered photocatalytic activation were also explored. […]
The structures of the vinyl-naphthyl-azide-biotins and vinyl-quinoline-azide-biotins are shown in FIG. 26A, and their syntheses are included in Example 13. Absorbance profiles for 200 μM activatable labels in 2% DMSO were monitored on a SPARK multimode plate reader (FIG. 26 B-C). […] The naphthyl-azide analogs were further evaluated for their capacity to undergo bioluminescence-triggered photocatalytic protein labeling as well as for their light-dependent, light-independent, and catalyst-independent backgrounds (FIG. 26D). […] To evaluate labeling efficiencies, samples were collected, resolved on SDS-PAGE, transferred to nitrocellulose membranes, and analyzed as described in Example 1. […]

[3] = test system: K562 cell lysate depleted of biotinylated proteins; assay: Photocatalytic protein labeling with azide-biotin analogs driven by HT178-cpNLuc-179:Ir-9049 in K562 lysate; assay type: biochemical; conditions: for light-independent background: 45 minutes incubation; for light-dependent background: LED 455 nm 10 minutes versus bioluminescence 20 minutes
Source text: To evaluate labeling efficiency, samples were collected, resolved on SDS-PAGE, transferred to a nitrocellulose membrane, and analyzed as described in Example 1. Unlike diazirene, light independent as well as light-dependent background was apparent for both LED and bioluminescence. […] These longer-lived intermediates can diffuse further before being quenched by water resulting in overall greater labeling radius and increased light-dependent background.
The aryl-azide-biotin analogs were further evaluated for efficiency and specificity of bioluminescence-triggered photocatalytic protein labeling as well as light-independent background (FIG. 21D). […] Samples were then collected, resolved on SDS-PAGE, transferred to a nitrocellulose membrane, and analyzed as described in Example 1. […] In addition, several substitutions to the phenyl ring increased labeling specificity to different extent likely by impeding the generation-kinetics and/or lifetime of the reactive intermediates resulting with an overall smaller labeling radius.
Subsequently, LED-triggered photocatalytic labeling of the proximal HT178-cpNLuc-179 was detected for all three analogs albeit with high light-dependent background. […] In addition, lifetime of photogenerated reactive intermediates resulted with a range of labeling specificities that would be useful for different applications designed to label a specific protein versus a neighboring environment.
The structures of the vinyl-naphthyl-azide-biotins and vinyl-quinoline-azide-biotins are shown in FIG. 26A, and their syntheses are included in Example 13. Absorbance profiles for 200 μM activatable labels in 2% DMSO were monitored on a SPARK multimode plate reader (FIG. 26 B-C). […] The naphthyl-azide analogs were further evaluated for their capacity to undergo bioluminescence-triggered photocatalytic protein labeling as well as for their light-dependent, light-independent, and catalyst-independent backgrounds (FIG. 26D). […] Bioluminescence was induced upon treatment with 100 μM fluorofurimazine for 20 minutes. To evaluate labeling efficiencies, samples were collected, resolved on SDS-PAGE, transferred to nitrocellulose membranes, and analyzed as described in Example 1. […] Furthermore, a methyl substitution on the vinyl group designed to inhibit Michael addition reduced background, especially for 9615, and increased labeling specificity. This reduced background was generally associated with a blue-shifted absorbance relative to the equivalent vinyl-naphthyl-azide analog.

DNA and RNA = assay: LED-triggered singlet oxygen-dependent labeling of DNA and RNA; assay type: biochemical; conditions: compared to Ir-9049 driven activation of vinyl-naphthyl-azides and vinyl-quinoline-azides
Protocol: Plates remained in the dark (control) or irradiated at 455 nm (2% LED; ˜1.6 W) for 20 minutes using Efficiency Aggregators biophotoreactor. To evaluate covalent crosslinking efficiencies, reactions were cleaned from non-crosslinked activatable labels using Zeba column (ThermoFisher) before being spotted on nitrocellulose membranes using a slot blot apparatus. Membranes were blocked with 5% BSA (Promega) in TBST for 1 hour at room temperature and then incubated overnight at 4° C. with anti-biotin antibody (Invitrogen) in TBST. Next day, membranes were washed three times with TBST and then incubated for an hour with a secondary anti-goat-HRP-antibody (Jackson laboratories). Following three washes in TBST, membranes were treated with ECL substrate (Promega) and scanned on the chemiluminescence channel to detect DNA or RNA labeled with biotin.

**Q.** For `Nc1cccc(-c2cn3c(=O)c(Cc4ccco4)nc-3c(Cc3ccccc3F)[nH]2)c1F` [fluorofurimazine], which “increase in total light output” value ([1]; filtered luminescence 610 nm/LP accumulated over 20 minutes, versus furimazine) is on record?
**A.** 5 fold

**Q.** What about the “increase in protein labeling” value ([1]; relative to preceding optimization step, 20 minutes) of the same molecule?
**A.** 5 fold

**Q.** What about the “labeling of LgBiT-HaloTag and FKBP-HiBiT” value (FKBP-HiBiT) of the same molecule?
**A.** Highest labeling

**Q.** For `[N-]=[N+]=Nc1ccc2cc(C(=O)NCCOCCOCCOCCOCCNC(=O)CCCC[C@@H]3SC[C@@H]4NC(=O)N[C@@H]43)ccc2c1` [Compound 9043], which “absorbance λmax” value ([2]; 200 μM in 2% DMSO) is on record?
**A.** 255 nm and 305 nm

**Q.** And the light-independent background [3]?
**A.** significantly decreased

**Q.** With `O=C(NCCOCCOCCCCCCCl)OCCOCCOCCOCCNC(=O)c1ccc2c(c1)C(=O)OC21c2ccc(O)c(Br)c2Oc2c1ccc(O)c2Br` [PS-9850] as the molecule, how does the “nucleic acid labeling via singlet oxygen generation” value (DNA and RNA) read?
**A.** lower efficiencies

**Q.** Which light-independent background [3] does the source give for `C/C(=C\C(=O)NCCOCCOCCOCCOCCNC(=O)CCCC[C@@H]1SC[C@@H]2NC(=O)N[C@@H]21)c1ccc(N=[N+]=[N-])c(C#N)c1` [Compound 9422, N-((E)-18-(4-azido-3-cyanophenyl)-16-oxo-3,6,9,12-tetraoxa-15-azanonadec-17-en-1-yl)-5-((3aS,4S,6aR)-2-oxohexahydro-1H-thieno[3,4-d]imidazol-4-yl)pentanamide] here?
**A.** significantly decreased

**Q.** What about the light-dependent background [3] of the same molecule?
**A.** significantly reduced light-dependent background

**Q.** For `C/C(=C\C(=O)NCCOCCOCCOCCOCCNC(=O)CCCC[C@@H]1SC[C@@H]2NC(=O)N[C@@H]21)c1ccc(N=[N+]=[N-])cc1` [Compound 9162], which red shift absorbance ([2]; aryl-azide analogs compared to phenyl-azide-biotin 9069) is on record?
**A.** 20 nm

**Q.** What about the light-independent background [3] of the same molecule?
**A.** significantly decreased

**Q.** What about the light-dependent background [3] of the same molecule?
**A.** highest light-dependent background

**Q.** Which light-independent background [3] does the source give for `[N-]=[N+]=Nc1ccc(C(=O)NCCOCCOCCOCCOCCNC(=O)CCCC[C@@H]2SC[C@@H]3NC(=O)N[C@@H]32)c(O)c1` [Compound 9046] here?
**A.** significantly decreased

**Q.** With `[N-]=[N+]=Nc1ccc(C(=O)NCCOCCOCCOCCOCCNC(=O)CCCC[C@@H]2SC[C@@H]3NC(=O)N[C@@H]32)cc1` [Compound 9069] as the molecule, how does the “labeling of proximal model protein and background” value ([3]; LED or bioluminescence, NanoLuc-HaloTag:Ir-9049 or HT178-cpNLuc-179:Ir-9049) read?
**A.** relatively high background
